These results are taken from ChEMBL document CHEMBL3875184, “Biosynthetic approaches to creating bioactive fungal metabolites: Pathway engineering and activation of secondary metabolism” (Bioorg Med Chem Lett, 2016).

Data set [1] concerns the target T1, Broad substrate specificity ATP-binding cassette transporter ABCG2 (Homo sapiens, UniProt Q9UNQ0).
T1 sequence (Q9UNQ0 whole entry): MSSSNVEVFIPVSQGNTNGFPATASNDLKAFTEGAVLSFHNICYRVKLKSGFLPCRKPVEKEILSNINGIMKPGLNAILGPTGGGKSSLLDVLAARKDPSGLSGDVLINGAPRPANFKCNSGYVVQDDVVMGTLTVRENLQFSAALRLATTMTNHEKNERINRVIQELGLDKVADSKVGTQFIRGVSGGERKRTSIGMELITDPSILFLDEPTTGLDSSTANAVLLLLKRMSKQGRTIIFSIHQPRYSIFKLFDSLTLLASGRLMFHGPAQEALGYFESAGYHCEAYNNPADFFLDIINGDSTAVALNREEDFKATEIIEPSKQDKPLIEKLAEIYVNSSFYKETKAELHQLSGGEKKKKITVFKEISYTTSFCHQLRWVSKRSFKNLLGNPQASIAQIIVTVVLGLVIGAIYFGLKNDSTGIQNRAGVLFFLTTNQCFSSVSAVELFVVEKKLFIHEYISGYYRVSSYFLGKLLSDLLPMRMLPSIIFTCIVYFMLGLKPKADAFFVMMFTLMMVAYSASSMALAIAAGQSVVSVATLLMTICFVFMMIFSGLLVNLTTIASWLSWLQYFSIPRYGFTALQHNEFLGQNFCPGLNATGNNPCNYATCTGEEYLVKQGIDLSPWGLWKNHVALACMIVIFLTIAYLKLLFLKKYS
The data set can be described thus: Inhibition of BCRP in human K562 cells assessed as potentiation of SN38-mediated growth inhibition at 3 uM after 4 days by coulter counter method. It counts as cell-based. The settings on record: k562, 96 h.

Data set [2] deals with T1, Broad substrate specificity ATP-binding cassette transporter ABCG2. The data set can be described thus: Inhibition of BCRP (unknown origin)-dependent ATPase activity at 50 uM after 30 mins by malachite green method. The following applies: 0.5 h.
The nature of data set [3]: Cytotoxicity against human HeLa cells. The class given is functional, cell-based.
Data set [4] can be described thus: Cytotoxicity against human MCF7 cells. It counts as functional, cell-based.
Data set [5] in a line: Cytotoxicity against human HT-29 cells. It counts as functional, cell-based.
Data set [6] in a line: Cytotoxicity against human Jurkat cells. The class given is functional, cell-based.
For data set [7], the target named is T2, Kinesin-like protein KIF11 (Homo sapiens, UniProt P52732).
T2 sequence (P52732 whole entry): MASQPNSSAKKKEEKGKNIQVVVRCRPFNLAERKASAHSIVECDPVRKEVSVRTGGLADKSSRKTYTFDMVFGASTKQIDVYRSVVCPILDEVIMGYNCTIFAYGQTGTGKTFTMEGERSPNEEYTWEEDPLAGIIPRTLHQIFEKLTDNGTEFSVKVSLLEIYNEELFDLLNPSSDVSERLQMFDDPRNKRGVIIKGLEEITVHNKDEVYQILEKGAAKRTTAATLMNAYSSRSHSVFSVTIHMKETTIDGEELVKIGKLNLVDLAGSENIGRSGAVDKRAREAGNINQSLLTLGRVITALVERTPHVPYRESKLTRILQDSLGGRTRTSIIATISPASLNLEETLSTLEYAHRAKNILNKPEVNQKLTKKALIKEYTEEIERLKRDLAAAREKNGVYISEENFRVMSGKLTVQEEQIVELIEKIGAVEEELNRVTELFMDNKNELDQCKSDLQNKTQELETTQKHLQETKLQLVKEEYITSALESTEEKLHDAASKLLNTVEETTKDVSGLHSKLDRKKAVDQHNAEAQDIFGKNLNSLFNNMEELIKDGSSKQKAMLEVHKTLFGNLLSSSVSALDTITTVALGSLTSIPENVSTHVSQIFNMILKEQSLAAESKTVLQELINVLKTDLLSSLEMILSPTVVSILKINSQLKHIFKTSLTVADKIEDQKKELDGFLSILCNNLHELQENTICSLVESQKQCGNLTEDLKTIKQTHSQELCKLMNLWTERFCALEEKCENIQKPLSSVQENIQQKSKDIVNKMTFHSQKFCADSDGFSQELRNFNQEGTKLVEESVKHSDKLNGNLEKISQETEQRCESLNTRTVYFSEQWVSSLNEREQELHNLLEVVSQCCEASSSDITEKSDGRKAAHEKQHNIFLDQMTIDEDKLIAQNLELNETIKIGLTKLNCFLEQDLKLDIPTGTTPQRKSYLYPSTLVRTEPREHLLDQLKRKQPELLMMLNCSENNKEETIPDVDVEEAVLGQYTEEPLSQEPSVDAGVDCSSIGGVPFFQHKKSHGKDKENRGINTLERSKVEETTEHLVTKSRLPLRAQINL
The data set can be described thus: Inhibition of wild type eXact-tagged human Eg5 motor domain (1 to 368 residues) expressed in Escherichia coli BL21(DE3) assessed as reduction in microtubule-stimulated ATPase activity preincubated for 15 mins followed by microtubule addition in the presence of ATP after 6 mins by malachite green method.

Data set [8] can be described thus: Cytotoxicity against human HeLa cells assessed as reduction in cell viability after 48 hrs by SF-based cell counting method. The class given is functional.
Data set [9] can be described thus: Inhibition of Drosophila Kinesin-1 assessed as reduction in microtubule-stimulated ATPase activity preincubated for 15 mins followed by microtubule addition in the presence of ATP after 6 mins by malachite green method.

Where only a bound is given, the exact number is not on record here.

As for `COc1ccc2c3c([nH]c2c1)[C@H](C=C(C)C)N1C(=O)[C@@H]2CCCN2C(=O)[C@]1(O)[C@H]3O`, the “inhibition (INH)” value in [1] and in [2] was “Active” each time.

`COc1ccc2c3c(n(CC=C(C)C)c2c1)[C@H](C=C(C)C)N1C(=O)[C@@H]2CCCN2C(=O)[C@]1(O)[C@H]3O`: the “inhibition (INH)” value in [1] and in data set [2] was “Active” each time. In addition, the concentration for half-maximal inhibition (IC50) in data set [3], in [4], in data set [5] and in data set [6] was 5 to 15 µM each time.

With `CC(C)(O)[C@@H]1C[C@@H](O)[C@]2(C)[C@H](CC[C@@]3(C)[C@H]2CC[C@H]2Cc4c([nH]c5ccccc45)[C@@]23C)O1` [TERPENDOLE E], the IC50 – broadly, the concentration at which inhibition is half-maximal – is 34.7 µM in data set [7], 12.1 µM in [8] and over 100 µM in [9].

Take `COc1ccc2c3c([nH]c2c1)[C@H](C=C(C)C)N1C(=O)[C@@H]2CCCN2C(=O)[C@@H]1C3` [FUMITREMORGIN]: the “inhibition (INH)” value in data set [1] and in [2] was “Active” each time.

As for `CC(C)(O)[C@@H]1CC(=O)[C@]2(C)[C@H](CC[C@@]3(C)[C@H]2CC[C@H]2Cc4c([nH]c5ccccc45)[C@@]23C)O1`, the half-maximal inhibitory concentration (IC50) was 16.5 µM in [7], 2.9 µM in [8] and over 100 µM in data set [9].

For the molecule `COc1ccc2c3c4n(c2c1)[C@@H](C=C(C)C)OOC(C)(C)C[C@@H]4N1C(=O)[C@@H]2CCCN2C(=O)[C@]1(O)[C@H]3O`, the “inhibition (INH)” value in [1] and in data set [2] was “Active” in each case. Moreover, the IC50 in data set [3], in [4], in data set [5] and in data set [6] was 20 to 30 µM in each case.

On to `CC(C)=C[C@H]1c2[nH]c3ccccc3c2C[C@H]2C(=O)N3CCC[C@H]3C(=O)N21` [DEMETHOXYFUMITREMORGIN C], for which the “inhibition (INH)” value in data set [1] and in data set [2] was “Active” throughout.
